Earlier results on one compound are cited in patent US20060106004A1, “Unique methods and formulations of bio-identical sex steroids for the treatment of pathophysiologic aberrations of menopause” (priority 2004, published 2006).

One data set concerns mammary carcinoma. The following applies: following radiation or carcinogenesis.
Another data set has as its system metastatic breast cancer. The following applies: doses from 2.5 to 15 mg/day.
A further data set relates to uterus. The note with it: ovariectomized rats.

For the compound `C[C@]12CC[C@@H]3c4ccc(O)cc4CC[C@H]3[C@@H]1C[C@@H](O)[C@@H]2O` [Estriol, estriol], the “reduction of mammary carcinoma rates” value in the data set on mammary carcinoma was 80%. Further, the “proportion of women with arrested growth and remission of metastatic lesions” value in the data set with metastatic breast cancer is reported as “Over ⅓”. Also, the “stimulation of uterine weights” value with uterus is given as “does not significantly stimulate uterine weights”.
